Holding throughout (experiment): Kinase Inhibition Assay
Assay [1] concerns the target Dual specificity protein kinase CLK1 (Homo sapiens, UniProt P49759).
In assay [2] the target is Dual specificity protein kinase CLK2 (Homo sapiens, UniProt P49760).
Assay [3] addresses Dual specificity protein kinase CLK3 (Homo sapiens, UniProt P49761).
Assay [4] has as its target Dual specificity tyrosine-phosphorylation-regulated kinase 1A (Homo sapiens, UniProt Q13627).

As usually defined, the IC50 is the concentration that gives 50% inhibition.

Structures are written as SMILES.

Dual specificity protein kinase CLK2, sequence (P49760 whole entry): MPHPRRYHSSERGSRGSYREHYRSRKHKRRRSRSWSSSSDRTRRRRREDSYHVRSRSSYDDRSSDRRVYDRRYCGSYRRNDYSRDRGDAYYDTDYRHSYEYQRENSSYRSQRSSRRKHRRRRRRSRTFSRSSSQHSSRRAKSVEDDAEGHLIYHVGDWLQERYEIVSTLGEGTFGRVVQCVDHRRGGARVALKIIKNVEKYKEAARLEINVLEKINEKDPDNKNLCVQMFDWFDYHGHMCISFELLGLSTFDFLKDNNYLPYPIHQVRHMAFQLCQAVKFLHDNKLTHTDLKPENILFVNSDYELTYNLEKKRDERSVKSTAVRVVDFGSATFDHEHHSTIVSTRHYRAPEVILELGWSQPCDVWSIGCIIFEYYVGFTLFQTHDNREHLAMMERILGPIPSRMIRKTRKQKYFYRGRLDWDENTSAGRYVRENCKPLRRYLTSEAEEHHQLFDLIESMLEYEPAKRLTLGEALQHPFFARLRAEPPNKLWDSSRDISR
Dual specificity protein kinase CLK1, sequence (P49759 whole entry): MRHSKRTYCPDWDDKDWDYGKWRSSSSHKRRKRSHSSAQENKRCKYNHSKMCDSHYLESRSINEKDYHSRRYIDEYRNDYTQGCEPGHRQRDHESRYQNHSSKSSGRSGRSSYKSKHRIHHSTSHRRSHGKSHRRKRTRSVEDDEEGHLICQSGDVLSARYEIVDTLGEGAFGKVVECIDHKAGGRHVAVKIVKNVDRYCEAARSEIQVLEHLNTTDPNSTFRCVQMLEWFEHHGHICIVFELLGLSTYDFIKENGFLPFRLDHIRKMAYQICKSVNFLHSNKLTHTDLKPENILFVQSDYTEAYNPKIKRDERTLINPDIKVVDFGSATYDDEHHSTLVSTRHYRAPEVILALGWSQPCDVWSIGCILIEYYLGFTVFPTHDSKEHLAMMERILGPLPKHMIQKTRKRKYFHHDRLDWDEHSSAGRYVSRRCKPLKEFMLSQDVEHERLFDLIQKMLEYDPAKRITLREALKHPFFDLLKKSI
Dual specificity protein kinase CLK3, sequence (P49761 as listed by the source): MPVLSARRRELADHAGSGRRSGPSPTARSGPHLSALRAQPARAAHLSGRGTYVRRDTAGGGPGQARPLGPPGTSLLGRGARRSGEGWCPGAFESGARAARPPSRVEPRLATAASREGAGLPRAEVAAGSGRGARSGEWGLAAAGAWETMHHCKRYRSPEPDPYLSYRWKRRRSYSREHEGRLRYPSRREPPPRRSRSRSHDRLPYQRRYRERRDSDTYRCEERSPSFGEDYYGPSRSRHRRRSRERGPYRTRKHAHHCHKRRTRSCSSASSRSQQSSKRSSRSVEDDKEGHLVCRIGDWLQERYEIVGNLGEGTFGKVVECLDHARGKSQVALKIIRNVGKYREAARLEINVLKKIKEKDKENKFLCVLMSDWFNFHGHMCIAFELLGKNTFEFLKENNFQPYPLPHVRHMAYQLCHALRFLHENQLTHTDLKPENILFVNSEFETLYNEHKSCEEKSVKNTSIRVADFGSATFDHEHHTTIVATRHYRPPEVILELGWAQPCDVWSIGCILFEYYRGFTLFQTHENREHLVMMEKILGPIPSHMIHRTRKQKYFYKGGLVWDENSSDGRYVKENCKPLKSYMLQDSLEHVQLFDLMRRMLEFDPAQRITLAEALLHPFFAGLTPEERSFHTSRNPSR

Regarding `Cc1nc2ccc3sc(NC(=O)c4ccc5ncsc5c4)nc3c2s1` [3A5], the IC50 stood at 51 nM in assay [1], 68 nM in assay [2], 346 nM in assay [3] and 260 nM in assay [4].

`CSc1nc2ccc3nc(NC(=O)c4ccco4)sc3c2s1` [5E4]: the IC50 in assay [1] is 277 nM; in assay [2], 174 nM; in assay [3] it was > 3000 nM; in assay [4] it was 334 nM.

For `CSc1nc2ccc3nc(NC(=O)c4ccc(S(=O)(=O)N5CCOCC5)cc4)sc3c2s1` [5F4], the IC50 in assay [1] is 273 nM; in assay [2], 127 nM; in assay [3], > 3000 nM; in assay [4] it was 213 nM.

Regarding `O=C1N=C(NCc2cccs2)S/C1=C/c1ccc2ncccc2c1` [NR9], the IC50 in assay [1] was 390 nM; in assay [2], 553 nM; in assay [3], > 3000 nM.
